From patent US10213428B2, “(4-((3R,4R)-3-methoxytetrahydro-pyran-4-ylamino)piperidin-1-yl)(5-methyl-6-(((2R,6S)-6-(p-tolyl)tetrahydro-2H-pyran-2-yl)methylamino)pyrimidin-4-yl)methanone citrate” (Centrexion Therapeutics Corporation, priority 2015, dated 2019)

What was measured:
[1] = Intravenous pharmacokinetics in dog; format: in vivo, beagle dogs; conditions: IV dose 5 μmol/kg, mean values
From the text: (§1) The pharmacokinetics of the test compound following single intravenous (IV) or oral (PO) doses were examined in • female BALB/c mice (average weight: 25 g) • male Wistar(Han) rats (average weight: 260 g) • male and female Göttingen Minipigs (average weight: 24 kg) • male beagle dogs (average weight: 15 kg) All non-rodent species were fasted overnight prior to dosing, while mice and rats had food and water available ad libitum. The p.o. dose of the compound was usually administered as suspension in 0.5% Natrosol or as a 0.5% Natrosol/0.015% Tween 80 suspension. For i.v. dosing purposes, the doses were applied as a solution in 0.9% NaCL, or as a solution containing 9.1% HP-beta Cyclodextrin in water.
(§2) Blood was collected by venous sampling and soaking of the blood in EDTA coated tubes. Samples were collected for up to 48 h after administration of the test compound. Plasma was then separated by centrifugation (5 min by approximately 9000 g at 4° C.). For determination of the test compound, plasma was transferred into PCR plates. All samples were stored at approximately −20° C. until bioanalytics. The test compound concentrations in plasma were determined by HPLC MS/MS. The lower limit of quantification was between 0.5 nmol/L and 1 nmol/L.

[2] = Intravenous pharmacokinetics in mouse; format: in vivo, BALB/c mice; conditions: IV dose 10 μmol/kg, mean values
From the text: as §1, §2

hepatocytes [3] = assay: In vitro metabolic stability in hepatocyte incubations, minipig; format: in vitro ADME; conditions: Minipig hepatocytes, 1 μM
Experimental: (§3) Metabolic degradation of the test compound is assayed in a hepatocyte suspension. Hepatocytes are incubated in an appropriate buffer system. Following a (typically) 30 min preincubation in an incubator (37° C., 10% CO2) 5 μL of test compound solution (1 μM) are added into 395 μL hepatocyte suspension (cell density in the range 0.25-5 Mio cells/mL, typically 1 Mio cells/mL, final DMSO concentration 0.05%). The cells are incubated for six hours (incubator, orbital shaker) and samples (25 μL) are taken at 0, 0.5, 1, 2, 4 and 6 hours. Samples are transferred into acetonitrile and pelleted by centrifugation (5 min). The supernatant is transferred to a new 96-deepwell plate, evaporated under nitrogen and resuspended. Decline of parent compound is analyzed by HPLC-MS/MS. CLint is calculated as follows CL_INTRINSIC=Dose/AUC=(CO/CD)/(AUD+clast/k)×1000/60. […]

[4] = as above; format: in vitro ADME; conditions: hepatocytes (suspension); Minipig; predicted from hepatocyte CL intrinsic, well stirred model
Experimental: as §3

hepatocytes [5] = assay: In vitro metabolic stability in hepatocyte incubations, rat; format: in vitro ADME; conditions: Rat hepatocytes, 1 μM
Experimental: as §3

[6] = as above; format: in vitro ADME; conditions: hepatocytes (suspension); Rat; predicted from hepatocyte CL intrinsic, well stirred model; read-out: CL, in vivo
Experimental: as §3

[7] = Oral pharmacokinetics in dog; format: in vivo, beagle dogs; conditions: oral dose 5 μmol/kg
From the text: as §1, §2

[8] = Intravenous pharmacokinetics in minipig; format: in vivo, Göttingen Minipigs; conditions: IV dose 5 μmol/kg, mean values
From the text: as §1, §2

[9] = Intravenous pharmacokinetics in rat; format: in vivo, Wistar(Han) rats; conditions: IV dose 5 μmol/kg, mean values
From the text: as §1, §2

plasma protein [10] = assay: In vitro plasma protein binding (equilibrium dialysis), dog; format: in vitro ADME; conditions: 1.0 μM, dialysis 2 hours at 37° C.
Experimental: (§4) Dianorm Teflon dialysis cells (micro 0.2) are used. Each cell consists of a donor (i.e., buffer chamber) and an acceptor chamber (i.e., plasma chamber), separated by an ultrathin semipermeable membrane with a 5 kDa molecular weight cutoff. Stock solutions for each test compound are prepared in DMSO at 1 mM and diluted to a final concentration of 1.0 μM. Aliquots of 200 μL dialysis buffer (100 mM potassium phosphate, pH 7.4) are dispensed into the buffer chamber. Aliquots of 200 μL test compound dialysis solution are dispensed into the plasma chambers. Incubation is carried out for 2 hours under rotation at 37° C. Then, the dialysate is transferred into reaction tubes. The tubes for the buffer fraction contain 0.2 mL acetonitril/water (80/20 volume/volume). Aliquots of 25 μL of the plasma dialysate are transferred into deep well plates and mixed with 25 μL acetonitril/water (80/20 volume/volume), 25 μL buffer, 25 μL calibration solution and 25 μL Internal Standard solution. Protein precipitation is done by adding 200 μL acetonitrile. Aliquots of 50 μL of the buffer dialysate are transferred into deep well plates and mixed with 25 μL blank plasma, 25 μL Internal Standard solution and 200 μL acetonitril. Percent bound is calculated with the formula: % bound=(plasma concentration−buffer concentration/plasma concentration)×100.

[11] = as above; format: in vitro ADME; conditions: pH 7.4, dialysis 2 hours at 37° C., read-out: Fraction bound (converted)
Experimental: as §4

plasma protein [12] = assay: In vitro plasma protein binding (equilibrium dialysis), minipig; format: in vitro ADME; conditions: 1.0 μM, dialysis 2 hours at 37° C.
Experimental: as §4

hepatocytes [13] = assay: In vitro metabolic stability in hepatocyte incubations, mouse; format: in vitro ADME; conditions: Mouse hepatocytes, 1 μM
Experimental: as §3

[14] = as above; format: in vitro ADME; conditions: hepatocytes (suspension); Mouse; predicted from hepatocyte CL intrinsic, well stirred model; read-out: CL, in vivo
Experimental: as §3

[15] = male, beagle, plasma, 5 umol/kg
[16] = female, BALB/c, plasma, 10 umol/kg
[17] = male, beagle, plasma, 5 umol/kg, mean values
[18] = both sexes, Göttingen, plasma, 5 umol/kg
[19] = male, Wistar(Han), plasma, 5 umol/kg

SMILES: CO[C@H]1COCC[C@H]1NC1CCN(C(=O)c2ncnc(NC[C@H]3CCC[C@@H](c4ccc(C)cc4)O3)c2C)CC1 [compound I, (4-((3R,4R)-3-methoxytetrahydro-pyran-4-ylamino)piperidin-1-yl)(5-methyl-6-(((2R,6S)-6-(p-tolyl)tetrahydro-2H-pyran-2-yl)methylamino)pyrimidin-4-yl)methanone]
- MRTdisp [1]: 6.40 h
- AUC(0-inf) [1, 15]: 5.99 µM·h
- clearance [1, 15]: 14 mL/min/kg
- Vd ([1]; male, beagle, plasma, 5 umol/kg, read-out: Vss): 4.94 L/kg
- MRTdisp [2]: 0.623 h
- AUC(0-inf) [2, 16]: 1.99 µM·h
- clearance [2, 16]: 86 mL/min/kg
- Vd ([2]; female, BALB/c, plasma, 10 umol/kg, read-out: Vss): 3.29 L/kg
- CL intrinsic, in vitro (hepatocytes [3]): 2.73 μL/min/10e6 cells
- predicted in vivo clearance at 1 μM [4]: 6.8 mL/min/kg
- CL intrinsic, in vitro (hepatocytes [5]): 8.77 μL/min/10e6 cells
- CLhep predicted at 1 μM [6]: 26 mL/min/kg
- AUC(0-inf) [7, 17]: 1.5 µM·h
- Cmax [7, 17]: 317 nM
- Tmax [7, 17]: 0.917 h
- MRTtot ([7]; mean values): 5.77 h
- F ([7]; oral bioavailability): 25%
- MRTdisp [8]: 4.15 h
- AUC(0-inf) [8, 18]: 4.31 µM·h
- clearance [8, 18]: 20 mL/min/kg
- Vd ([8]; both sexes, Göttingen, plasma, 5 umol/kg, read-out: Vss): 5.07 L/kg
- MRTdisp [9]: 1.49 h
- AUC(0-inf) [9, 19]: 1.49 µM·h
- clearance [9, 19]: 56.1 mL/min/kg
- Vd ([9]; male, Wistar(Han), plasma, 5 umol/kg, read-out: Vss): 5.04 L/kg
- Fraction unbound (plasma protein [10]): 29.6%
- fraction unbound at 2 h, 1 μM [11]: 0.296
- Fraction unbound (plasma protein [12]): 39.2%
- CL intrinsic, in vitro (hepatocytes [13]): 16.4 μL/min/10e6 cells
- CLhep predicted at 1 μM [14]: 49 mL/min/kg
